Experimental data from US10053417B2, “Neprilysin inhibitors” (THERAVANCE BIOPHARMA R&D IP, LLC, priority 2013, dated 2018).

Molecular target: T1, human NEP (Homo sapiens, UniProt P08473)
T1 construct: purchased R&D Systems, Minneapolis, Minn; 1182-ZN
Experiment: In vitro enzyme inhibition assay, inhibitor potency at human NEP (Assay 1)
Assay type: biochemical
Conditions: recombinant human NEP; fluorogenic peptide substrate 10 μM; 37° C.; values given as ranges
Protocol: The inhibitory activities of compounds at human and rat neprilysin (EC 3.4.24.11; NEP) and human angiotensin converting enzyme (ACE) were determined using in vitro assays as described below.
Recombinant human NEP and recombinant human ACE were obtained commercially (R&D Systems, Minneapolis, Minn., catalog numbers 1182-ZN and 929-ZN, respectively). The fluorogenic peptide substrate Mca-D-Arg-Arg-Leu-Dap-(Dnp)-OH (Medeiros et al. (1997) Braz. J. Med. Biol. Res. 30:1157-62; Anaspec, San Jose, Calif.) and Abz-Phe-Arg-Lys(Dnp)-Pro-OH (Araujo et al. (2000) Biochemistry 39:8519-8525; Bachem, Torrance, Calif.) were used in the NEP and ACE assays respectively.
The assays were performed in 384-well white opaque plates at 37° C. using the fluorogenic peptide substrates at a concentration of 10 μM in Assay Buffer (NEP: 50 mM HEPES, pH 7.5, 100 mM NaCl, 0.01% polyethylene glycol sorbitan monolaurate (Tween-20), 10 μM ZnSO4; ACE: 50 mM HEPES, pH 7.5, 100 mM NaCl, 0.01% Tween-20, 1 μM ZnSO4).
Test compounds were assayed over the range of concentrations from […] to 20 μM. Test compounds were added to the enzymes and incubated for 30 minute at 37° C. prior to initiating the reaction by the addition of substrate. Reactions were terminated after 20 minutes of incubation at 37° C. by the addition of glacial acetic acid to a final concentration of 3.6% (v/v).
Plates were read on a fluorometer with excitation and emission wavelengths set to 320 nm and 405 nm, respectively. Inhibition constants were obtained by nonlinear regression of the data using the equation (GraphPad Software, Inc., San Diego, Calif.): ν=ν0/[1+(I/K′)] where ν is the reaction rate, ν0 is the uninhibited reaction rate, I is the inhibitor concentration and K′ is the apparent inhibition constant.
Compounds of the invention were tested in this assay and found to have pKi values at human NEP as follows.

T1 sequence (P08473 52-750 limits assumed): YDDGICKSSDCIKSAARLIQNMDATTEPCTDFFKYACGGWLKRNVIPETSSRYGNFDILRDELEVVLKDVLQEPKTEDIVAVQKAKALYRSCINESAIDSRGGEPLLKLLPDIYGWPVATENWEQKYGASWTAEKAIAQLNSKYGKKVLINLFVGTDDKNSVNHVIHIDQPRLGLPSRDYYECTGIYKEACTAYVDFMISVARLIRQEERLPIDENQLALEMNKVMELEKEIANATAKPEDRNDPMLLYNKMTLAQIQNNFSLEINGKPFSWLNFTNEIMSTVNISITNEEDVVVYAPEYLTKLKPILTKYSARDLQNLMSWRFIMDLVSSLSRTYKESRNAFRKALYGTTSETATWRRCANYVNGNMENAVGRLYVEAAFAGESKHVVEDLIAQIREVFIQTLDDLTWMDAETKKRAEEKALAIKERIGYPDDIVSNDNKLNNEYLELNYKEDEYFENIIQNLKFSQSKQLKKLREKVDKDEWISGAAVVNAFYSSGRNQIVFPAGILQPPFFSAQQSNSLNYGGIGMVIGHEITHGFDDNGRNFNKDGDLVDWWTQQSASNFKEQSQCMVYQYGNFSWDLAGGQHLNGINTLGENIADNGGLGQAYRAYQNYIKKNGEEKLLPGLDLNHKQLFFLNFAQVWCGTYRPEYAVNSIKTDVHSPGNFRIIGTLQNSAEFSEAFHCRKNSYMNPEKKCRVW

Ki | Compound
10 to 31.6 nM | O=C(N[C@H](Cc1ccc(-c2cccc(Cl)c2)cc1)C[C@@H](O)C(=O)O)C(=O)N1CCC(F)CC1 [Example 4-31, (2R,4R)-5-(3′-Chlorobiphenyl-4-yl)-4-[2-(4-fluoropiperidin-1-yl)-2-oxo-acetylamino]-2-hydroxypentanoic acid]
10 to 31.6 nM | CN1CCN(C(=O)C(=O)N[C@H](Cc2ccc(-c3cccc(Cl)c3)cc2)C[C@@H](O)C(=O)O)CC1 [Example 4-34, (2R,4R)-5-(3′-Chlorobiphenyl-4-yl)-2-hydroxy-4-[2-(4-methyl-piperazin-1-yl)-2-oxo-acetylamino]pentanoic acid]
10 to 31.6 nM | CCOC(=O)N1CCN(C(=O)C(=O)N[C@H](Cc2ccc(-c3cccc(Cl)c3)cc2)C[C@@H](O)C(=O)O)CC1 [Example 4-35, 4-[(1R,3R)-3-Carboxy-1-(3′-chlorobiphenyl-4-ylmethyl)-3-hydroxy-propylaminooxalyl]-piperazine-1-carboxylic acid ethyl ester]
10 to 31.6 nM | CCOCCN1CCN(C(=O)C(=O)N[C@H](Cc2ccc(-c3cccc(Cl)c3)cc2)C[C@@H](O)C(=O)O)CC1 [Example 4-38, (2R,4R)-5-(3′-Chlorobiphenyl-4-yl)-4-{2-[4-(2-ethoxy-ethyl)-piperazin-1-yl]-2-oxo-acetylamino}-2-hydroxypentanoic acid]
10 to 31.6 nM | CS(=O)(=O)N1CCN(C(=O)C(=O)N[C@H](Cc2ccc(-c3cccc(Cl)c3)cc2)C[C@@H](O)C(=O)O)CC1 [Example 4-39, (2R,4R)-5-(3′-Chlorobiphenyl-4-yl)-2-hydroxy-4-[2-(4-methanesulfonyl-piperazin-1-yl)-2-oxo-acetylamino]pentanoic acid]
10 to 31.6 nM | CN(C)C(=O)N1CCN(C(=O)C(=O)N[C@H](Cc2ccc(-c3cccc(Cl)c3)cc2)C[C@@H](O)C(=O)O)CC1 [Example 4-40, (2R,4R)-5-(3′-Chlorobiphenyl-4-yl)-4-[2-(4-dimethylcarbamoyl-piperazin-1-yl)-2-oxo-acetylamino]-2-hydroxypentanoic acid]
1 to 10 nM | COC(=O)N1CCN(C(=O)C(=O)N[C@H](Cc2ccc(-c3cccc(Cl)c3)cc2)C[C@@H](O)C(=O)O)CC1 [Example 4-41, 4-[(1R,3R)-3-Carboxy-1-(3′-chlorobiphenyl-4-ylmethyl)-3-hydroxy-propylaminooxalyl]-piperazine-1-carboxylic acid methyl ester]
1 to 10 nM | O=C(N[C@H](Cc1ccc(-c2cccc(Cl)c2)cc1)C[C@@H](O)C(=O)O)C(=O)N1CCOCC1 [Example 4-44, (2R,4R)-5-(3′-Chlorobiphenyl-4-yl)-2-hydroxy-4-(2-morpholin-4-yl-2-oxo-acetylamino)pentanoic acid]

More lines, now with the values behind:

Compound | Ki
O=C(N[C@H](Cc1ccc(-c2cccc(Cl)c2)cc1)C[C@@H](O)C(=O)O)C(=O)N1CCCC[C@@H]1CO [Example 4-25, (2R,4R)-5-(3′-Chlorobiphenyl-4-yl)-2-hydroxy-4-[2-((R)-2-hydroxymethyl-piperidin-1-yl)-2-oxo-acetylamino]pentanoic acid] | ≤ 1 nM
O=C(N[C@H](Cc1ccc(-c2cccc(Cl)c2)cc1)C[C@@H](O)C(=O)O)C(=O)N1CCCC[C@H]1CO [Example 4-26, (2R,4R)-5-(3′-Chlorobiphenyl-4-yl)-2-hydroxy-4-[2-((S)-2-hydroxymethyl-piperidin-1-yl)-2-oxo-acetylamino]pentanoic acid] | ≤ 1 nM
O=C(N[C@H](Cc1ccc(-c2cccc(Cl)c2)cc1)C[C@@H](O)C(=O)O)C(=O)N1CCC(C(=O)O)CC1 [Example 4-27, 1-[(1R,3R)-3-Carboxy-1-(3′-chlorobiphenyl-4-ylmethyl)-3-hydroxypropyl-aminooxalyl]-piperidine-4-carboxylic acid] | 1 to 10 nM
O=C(N[C@H](Cc1ccc(-c2cccc(Cl)c2)cc1)C[C@@H](O)C(=O)O)C(=O)N1CCCC(C(=O)O)C1 (stereo partly drawn) [Example 4-28, 1-[(1R,3R)-3-Carboxy-1-(3′-chlorobiphenyl-4-ylmethyl)-3-hydroxypropyl-aminooxalyl]-piperidine-3-carboxylic acid] | 1 to 10 nM
NC(=O)C1CCN(C(=O)C(=O)N[C@H](Cc2ccc(-c3cccc(Cl)c3)cc2)C[C@@H](O)C(=O)O)CC1 [Example 4-29, (2R,4R)-4-[2-(4-Carbamoyl-piperidin-1-yl)-2-oxo-acetylamino]-5-(3′-chlorobiphenyl-4-yl)-2-hydroxypentanoic acid] | 10 to 31.6 nM
N#CC1CCCN(C(=O)C(=O)N[C@H](Cc2ccc(-c3cccc(Cl)c3)cc2)C[C@@H](O)C(=O)O)C1 (stereo partly drawn) [Example 4-30, (2R,4R)-5-(3′-Chlorobiphenyl-4-yl)-4-[2-(3-cyanopiperidin-1-yl)-2-oxo-acetylamino]-2-hydroxypentanoic acid] | 10 to 31.6 nM
O=C(N[C@H](Cc1ccc(-c2cccc(Cl)c2)cc1)C[C@@H](O)C(=O)O)C(=O)N1CCCC(CCO)C1 (stereo partly drawn) [Example 4-32, (2R,4R)-5-(3′-Chlorobiphenyl-4-yl)-2-hydroxy-4-{2-[3-(2-hydroxyethyl)-piperidin-1-yl]-2-oxo-acetylamino}pentanoic acid] | 10 to 31.6 nM
O=C(N[C@H](Cc1ccc(-c2cccc(Cl)c2)cc1)C[C@@H](O)C(=O)O)C(=O)N1CCC[C@H](CO)C1 [Example 4-33, (2R,4R)-5-(3′-Chlorobiphenyl-4-yl)-2-hydroxy-4-[2-((S)-3-hydroxymethyl-piperidin-1-yl)-2-oxo-acetylamino]pentanoic acid] | 1 to 10 nM
O=C(N[C@H](Cc1ccc(-c2cccc(Cl)c2)cc1)C[C@@H](O)C(=O)O)C(=O)N1CCN(C(=O)c2ccco2)CC1 [Example 4-36, (2R,4R)-5-(3′-Chlorobiphenyl-4-yl)-4-{2-[4-(furan-2-carbonyl)-piperazin-1-yl]-2-oxo-acetylamino}-2-hydroxypentanoic acid] | 1 to 10 nM
N#Cc1ccccc1N1CCN(C(=O)C(=O)N[C@H](Cc2ccc(-c3cccc(Cl)c3)cc2)C[C@@H](O)C(=O)O)CC1 [Example 4-37, (2R,4R)-5-(3′-Chlorobiphenyl-4-yl)-4-{2-[4-(2-cyano-phenyl)-piperazin-1-yl]-2-oxo-acetylamino}-2-hydroxypentanoic acid] | 10 to 31.6 nM
C[C@@H]1COC[C@H](C)N1C(=O)C(=O)N[C@H](Cc1ccc(-c2cccc(Cl)c2)cc1)C[C@@H](O)C(=O)O [Example 4-42, (2R,4R)-5-(3′-Chlorobiphenyl-4-yl)-4-[2-((3R,5S)-3,5-dimethylmorpholin-4-yl)-2-oxo-acetylamino]-2-hydroxypentanoic acid] | 10 to 31.6 nM
O=C(N[C@H](Cc1ccc(-c2cccc(Cl)c2)cc1)C[C@@H](O)C(=O)O)C(=O)N1CCOC(CO)C1 (stereo partly drawn) [Example 4-43, (2R,4R)-5-(3′-Chlorobiphenyl-4-yl)-2-hydroxy-4-[2-(2-hydroxymethyl-morpholin-4-yl)-2-oxo-acetylamino]pentanoic acid] | 1 to 10 nM
C[C@@H]1CN(C(=O)C(=O)N[C@H](Cc2ccc(-c3cccc(Cl)c3)cc2)C[C@@H](O)C(=O)O)C[C@H](C)O1 [Example 4-45, (2R,4R)-5-(3′-Chlorobiphenyl-4-yl)-4-[2-((2R,6S)-2,6-dimethylmorpholin-4-yl)-2-oxo-acetylamino]-2-hydroxypentanoic acid] | 1 to 10 nM
C[C@@H]1CO[C@@H](C)CN1C(=O)C(=O)N[C@H](Cc1ccc(-c2cccc(Cl)c2)cc1)C[C@@H](O)C(=O)O [Example 4-46, (2R,4R)-5-(3′-Chlorobiphenyl-4-yl)-4-[2-((2S,5R)-2,5-dimethylmorpholin-4-yl)-2-oxo-acetylamino]-2-hydroxypentanoic acid] | 1 to 10 nM
C[C@H]1COC[C@H](C)N1C(=O)C(=O)N[C@H](Cc1ccc(-c2cccc(Cl)c2)cc1)C[C@@H](O)C(=O)O [Example 4-47, (2R,4R)-5-(3′-Chlorobiphenyl-4-yl)-4-[2-((3S,5S)-3,5-dimethylmorpholin-4-yl)-2-oxo-acetylamino]-2-hydroxypentanoic acid] | 1 to 10 nM
O=C(N[C@H](Cc1ccc(-c2cccc(Cl)c2)cc1)C[C@@H](O)C(=O)O)C(=O)N1CCCO1 [Example 4-48, (2R,4R)-5-(3′-Chlorobiphenyl-4-yl)-2-hydroxy-4-(2-isoxazolidin-2-yl-2-oxo-acetylamino)pentanoic acid] | 1 to 10 nM
O=C(N[C@H](Cc1ccc(-c2cccc(Cl)c2)cc1)C[C@@H](O)C(=O)O)C(=O)N1CC(O)CO1 (stereo partly drawn) [Example 4-49, (2R,4R)-5-(3′-Chlorobiphenyl-4-yl)-2-hydroxy-4-[2-(4-hydroxyisoxazolidin-2-yl)-2-oxo-acetylamino]pentanoic acid] | 1 to 10 nM
O=C(N[C@H](Cc1ccc(-c2cccc(Cl)c2)cc1)C[C@@H](O)C(=O)O)C(=O)N1CC2(COC2)C1 [Example 4-50, (2R,4R)-5-(3′-Chlorobiphenyl-4-yl)-2-hydroxy-4-[2-(2-oxa-6-aza-spiro[3.3]hept-6-yl)-2-oxo-acetylamino]pentanoic acid] | 10 to 31.6 nM
